#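 Briefly, cells in 96-well plates were exposed to five compound concentrations for 48 h, and endpoints were estimated by linear interpolation. GI50 is the concentration that inhibits growth by half. TGI denotes the concentration required for complete inhibition of growth.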
# Legend:
# Assay in all cases: NCI anticancer screen, dose series, 48 h
# 786-0 renal = test system: 786-0 renal
# A498 renal = test system: A498 renal
# A549 NSCLC = test system: A549 NSCLC
# ACHN renal = test system: ACHN renal
# BT-549 breast = test system: BT-549 breast
# CAKI-1 renal = test system: CAKI-1 renal
# CCRF-CEM leukemia = test system: CCRF-CEM leukemia
# COLO 205 colon = test system: COLO 205 colon
# DU-145 prostate = test system: DU-145 prostate
# EKVX NSCLC = test system: EKVX NSCLC
# HCC-2998 colon = test system: HCC-2998 colon
# HCT-116 colon = test system: HCT-116 colon
# HL-60(TB) leukemia = test system: HL-60(TB) leukemia
# HOP-62 NSCLC = test system: HOP-62 NSCLC
# HOP-92 NSCLC = test system: HOP-92 NSCLC
# HS 578T breast = test system: HS 578T breast
# HT29 colon = test system: HT29 colon
# IGROV1 ovarian = test system: IGROV1 ovarian
# K-562 leukemia = test system: K-562 leukemia
# KM12 colon = test system: KM12 colon
# LOX IMVI melanoma = test system: LOX IMVI melanoma
# M14 melanoma = test system: M14 melanoma
# MALME-3M melanoma = test system: MALME-3M melanoma
# MCF7 breast = test system: MCF7 breast
# MDA-MB-231 breast = test system: MDA-MB-231 breast
# MDA-MB-435 = test system: MDA-MB-435
# MOLT-4 leukemia = test system: MOLT-4 leukemia
# NCI-H226 lung = test system: NCI-H226 lung
# NCI-H23 lung = test system: NCI-H23 lung
# NCI-H460 lung = test system: NCI-H460 lung
# NCI-H522 lung = test system: NCI-H522 lung
# NCI/ADR-RES ovarian = test system: NCI/ADR-RES ovarian
# OVCAR-3 ovarian = test system: OVCAR-3 ovarian
# OVCAR-4 ovarian = test system: OVCAR-4 ovarian
# OVCAR-5 ovarian = test system: OVCAR-5 ovarian
# OVCAR-8 ovarian = test system: OVCAR-8 ovarian
# PC-3 prostate = test system: PC-3 prostate
# RPMI-8226 leukemia = test system: RPMI-8226 leukemia
# RXF 393 renal = test system: RXF 393 renal
# SF-268 CNS = test system: SF-268 CNS
# SF-295 CNS = test system: SF-295 CNS
# SF-539 CNS = test system: SF-539 CNS
# SK-MEL-2 melanoma = test system: SK-MEL-2 melanoma
# SK-MEL-28 melanoma = test system: SK-MEL-28 melanoma
# SK-MEL-5 melanoma = test system: SK-MEL-5 melanoma
# SK-OV-3 ovarian = test system: SK-OV-3 ovarian
# SN12C renal = test system: SN12C renal
# SNB-19 CNS = test system: SNB-19 CNS
# SNB-75 CNS = test system: SNB-75 CNS
# SR leukemia = test system: SR leukemia
# SW-620 colon = test system: SW-620 colon
# T-47D breast = test system: T-47D breast
# TK-10 renal = test system: TK-10 renal
# U251 CNS = test system: U251 CNS
# UACC-257 melanoma = test system: UACC-257 melanoma
# UACC-62 melanoma = test system: UACC-62 melanoma
# UO-31 renal = test system: UO-31 renal
structure (smiles),measurement,setting,value
O=C(CCl)Nc1ccc(Cc2ccc(NC(=O)CCl)cc2)cc1,GI50,786-0 renal,2090 nM
same,TGI,786-0 renal,5.1 µM
same,GI50,A498 renal,18.7 µM
same,TGI,A498 renal,94.1 µM
same,GI50,A549 NSCLC,4.01 µM
same,TGI,A549 NSCLC,> 100 µM
same,GI50,ACHN renal,1560 nM
same,TGI,ACHN renal,3.03 µM
same,GI50,BT-549 breast,1400 nM
same,TGI,BT-549 breast,4.69 µM
same,GI50,CAKI-1 renal,1620 nM
same,TGI,CAKI-1 renal,3.38 µM
same,GI50,CCRF-CEM leukemia,470 nM
same,TGI,CCRF-CEM leukemia,3.01 µM
same,GI50,COLO 205 colon,1970 nM
same,TGI,COLO 205 colon,4.12 µM
same,GI50,DU-145 prostate,2850 nM
same,TGI,DU-145 prostate,11 µM
same,GI50,EKVX NSCLC,2230 nM
same,TGI,EKVX NSCLC,5.78 µM
same,GI50,HCC-2998 colon,1800 nM
same,TGI,HCC-2998 colon,3.47 µM
same,GI50,HCT-116 colon,440 nM
same,TGI,HCT-116 colon,1030 nM
same,GI50,HL-60(TB) leukemia,2070 nM
same,TGI,HL-60(TB) leukemia,4.84 µM
same,GI50,HOP-62 NSCLC,2380 nM
same,TGI,HOP-62 NSCLC,6.1 µM
same,GI50,HOP-92 NSCLC,2090 nM
same,TGI,HOP-92 NSCLC,5.12 µM
same,GI50,HS 578T breast,5.37 µM
same,TGI,HS 578T breast,> 100 µM
same,GI50,HT29 colon,1730 nM
same,TGI,HT29 colon,4.47 µM
same,GI50,IGROV1 ovarian,1430 nM
same,TGI,IGROV1 ovarian,4.06 µM
same,GI50,K-562 leukemia,1670 nM
same,TGI,K-562 leukemia,> 100 µM
same,GI50,KM12 colon,1570 nM
same,TGI,KM12 colon,3.17 µM
same,GI50,LOX IMVI melanoma,784 nM
same,TGI,LOX IMVI melanoma,2350 nM
same,GI50,M14 melanoma,1230 nM
same,TGI,M14 melanoma,3.2 µM
same,GI50,MALME-3M melanoma,1390 nM
same,TGI,MALME-3M melanoma,3.17 µM
same,GI50,MCF7 breast,1540 nM
same,TGI,MCF7 breast,> 100 µM
same,GI50,MDA-MB-231 breast,1540 nM
same,TGI,MDA-MB-231 breast,5.06 µM
same,GI50,MDA-MB-435,1760 nM
same,TGI,MDA-MB-435,4.31 µM
same,GI50,MOLT-4 leukemia,1440 nM
same,TGI,MOLT-4 leukemia,6.32 µM
same,GI50,NCI-H226 lung,3.14 µM
same,TGI,NCI-H226 lung,> 100 µM
same,GI50,NCI-H23 lung,1770 nM
same,TGI,NCI-H23 lung,4.52 µM
same,GI50,NCI-H460 lung,2090 nM
same,TGI,NCI-H460 lung,4.75 µM
same,GI50,NCI-H522 lung,1470 nM
same,TGI,NCI-H522 lung,3.5 µM
same,GI50,NCI/ADR-RES ovarian,2840 nM
same,TGI,NCI/ADR-RES ovarian,> 100 µM
same,GI50,OVCAR-3 ovarian,1170 nM
same,TGI,OVCAR-3 ovarian,2480 nM
same,GI50,OVCAR-4 ovarian,1420 nM
same,TGI,OVCAR-4 ovarian,3.44 µM
same,GI50,OVCAR-5 ovarian,2270 nM
same,TGI,OVCAR-5 ovarian,5.52 µM
same,GI50,OVCAR-8 ovarian,3.17 µM
same,TGI,OVCAR-8 ovarian,> 100 µM
same,GI50,PC-3 prostate,2130 nM
same,TGI,PC-3 prostate,6.42 µM
same,GI50,RPMI-8226 leukemia,1670 nM
same,TGI,RPMI-8226 leukemia,4.78 µM
same,GI50,RXF 393 renal,1430 nM
same,TGI,RXF 393 renal,3.07 µM
same,GI50,SF-268 CNS,1830 nM
same,TGI,SF-268 CNS,9.56 µM
same,GI50,SF-295 CNS,3.55 µM
same,TGI,SF-295 CNS,19.7 µM
same,GI50,SF-539 CNS,1660 nM
same,TGI,SF-539 CNS,3.28 µM
same,GI50,SK-MEL-2 melanoma,2460 nM
same,TGI,SK-MEL-2 melanoma,7.54 µM
same,GI50,SK-MEL-28 melanoma,2150 nM
same,TGI,SK-MEL-28 melanoma,6.06 µM
same,GI50,SK-MEL-5 melanoma,1370 nM
same,TGI,SK-MEL-5 melanoma,2720 nM
same,GI50,SK-OV-3 ovarian,18 µM
same,TGI,SK-OV-3 ovarian,> 100 µM
same,GI50,SN12C renal,2380 nM
same,TGI,SN12C renal,> 100 µM
same,GI50,SNB-19 CNS,1800 nM
same,TGI,SNB-19 CNS,5.14 µM
same,TGI,SNB-75 CNS,> 29.3 µM
same,GI50,SR leukemia,704 nM
same,TGI,SR leukemia,5.56 µM
same,GI50,SW-620 colon,1920 nM
same,TGI,SW-620 colon,5.25 µM
same,GI50,T-47D breast,1650 nM
same,TGI,T-47D breast,4.67 µM
same,GI50,TK-10 renal,4.17 µM
same,TGI,TK-10 renal,> 75 µM
same,GI50,U251 CNS,1400 nM
same,TGI,U251 CNS,2980 nM
same,GI50,UACC-257 melanoma,2780 nM
same,TGI,UACC-257 melanoma,9.46 µM
same,GI50,UACC-62 melanoma,1530 nM
same,TGI,UACC-62 melanoma,3.34 µM
same,GI50,UO-31 renal,2770 nM
same,TGI,UO-31 renal,> 23.4 µM

# From PubChem BioAssay (NCI)
